Data published in patent publication US20190343846A1, “PREPARATION OF SOLID CYCLODEXTRIN COMPLEXES FOR OPHTHALMIC ACTIVE PHARMACEUTICAL INGREDIENT DELIVERY” (OCULIS SA, priority 2016, published 2019).
Values after ≈ are worked out from the molar mass of the structure shown.

Legend:
[1] = Solubility of kinase inhibitors in pure water (S0) from phase-solubility profiles; assay type: physicochemical; conditions: for solubility: 25 °C, water, thermodynamic from solid, read-out: S0 (mg/mL), solubility in pure water
Source text: (§1) Kinase inhibitors were suspended in aqueous solutions containing from 1% (w/v) to 15% (w/v) γ-cyclodextrin.

[2] = Solubility of kinase inhibitors in aqueous γ-cyclodextrin media; assay type: physicochemical; conditions: aqueous with cosolvent or surfactant or cyclodextrin, thermodynamic from solid
Method: Kinase inhibitors were suspended in aqueous media consisting of pure water, aqueous γ-cyclodextrin solution, aqueous solution containing γ-cyclodextrin and tyloxapol (1% w/v), and aqueous eye drop medium containing γ-cyclodextrin, benzalkonium chloride (0.02% w/v), disodium edetate (0.10% w/v) and sodium chloride (0.05% w/v). The concentration of γ-cyclodextrin varied depending on the kinase inhibitor. The solubility was determined as described in Example 10.

[3] = Stability constant (K1:1) of active pharmaceutical ingredient/γ-cyclodextrin complexes from phase-solubility profiles; assay type: physicochemical; conditions: initial linear part of phase-solubility profile
Source text: as §1

[4] = 25° C.; cited from earlier work
[5] = aqueous eye drop medium with 4% w/v γ-cyclodextrin, eye drop medium: 4 % w/v γ-cyclodextrin, benzalkonium chloride 0.02%, disodium edetate 0.10%, sodium chloride 0.05%, read-out: Solubility (mg/mL) Eye drops
[6] = aqueous solution with 4 % w/v γ-cyclodextrin and tyloxapol (1% w/v), read-out: Solubility (mg/mL) Tyloxapol
[7] = aqueous γ-cyclodextrin solution, 4 % w/v γ-cyclodextrin, read-out: Solubility (mg/mL) γ-Cyclodextrin

Q: What does the source list for CNC(=O)c1ccccc1Sc1ccc2c(/C=C/c3ccccn3)n[nH]c2c1 [Axitinib]?
A: solubility [1]: 0.0004 mg/mL (≈ 1.03 µM); solubility [2, 5]: 0.007 mg/mL (≈ 18.1 µM); solubility [2, 6]: 0.008 mg/mL (≈ 20.7 µM); solubility [2, 7]: 0.003 mg/mL (≈ 7.76 µM); K1:1 (M^−1), stability constant of drug/γ-cyclodextrin complex [3]: 260 M⁻¹

Q: Which solubility [1] does the source give for COc1cc2c(Oc3ccc4[nH]c(C)cc4c3F)ncnc2cc1OCCCN1CCCC1 [Cediranib] here?
A: 1.2 mg/mL (≈ 2660 µM)

Q: What about the solubility ([2]; aqueous eye drop medium with 12% w/v γ-cyclodextrin, eye drop medium: 12 % w/v γ-cyclodextrin, benzalkonium chloride 0.02%, disodium edetate 0.10%, sodium chloride 0.05%, read-out: Solubility (mg/mL) Eye drops) of the same compound?
A: 4.1 mg/mL (≈ 9100 µM)

Q: And the solubility ([2]; aqueous solution with 12 % w/v γ-cyclodextrin and tyloxapol (1% w/v), read-out: Solubility (mg/mL) Tyloxapol)?
A: 2.8 mg/mL (≈ 6220 µM)

Q: And the solubility ([2]; aqueous γ-cyclodextrin solution, 12 % w/v γ-cyclodextrin, read-out: Solubility (mg/mL) γ-Cyclodextrin)?
A: 2 mg/mL (≈ 4440 µM)

Q: And the “K1:1 (M^−1), stability constant of drug/γ-cyclodextrin complex” value (shortened to “K1:1 (M^−1), stability constant”) [3]?
A: 23 M⁻¹

Q: For CN1CCN(c2ccc3nc(-c4c(N)c5c(F)cccc5[nH]c4=O)[nH]c3c2)CC1 [Dovitinib], which “S0 (mg/mL), solubility in pure water” value [1] is on record?
A: 0.006 mg/mL

Q: And the “K1:1 (M^−1), stability constant” value [3]?
A: 680 M⁻¹

Q: With CC1(C)CNc2cc(NC(=O)c3cccnc3NCc3ccncc3)ccc21 [Motesanib] as the compound, how does the solubility [1] read?
A: 0.014 mg/mL (≈ 37.5 µM)

Q: What about the solubility ([2]; aqueous eye drop medium with 8% w/v γ-cyclodextrin, eye drop medium: 8 % w/v γ-cyclodextrin, benzalkonium chloride 0.02%, disodium edetate 0.10%, sodium chloride 0.05%, read-out: Solubility (mg/mL) Eye drops) of the same compound?
A: 0.07 mg/mL (≈ 187 µM)

Q: What about the solubility ([2]; aqueous solution with 8 % w/v γ-cyclodextrin and tyloxapol (1% w/v), read-out: Solubility (mg/mL) Tyloxapol) of the same compound?
A: 0.04 mg/mL (≈ 107 µM)

Q: And the solubility ([2]; aqueous γ-cyclodextrin solution, 8 % w/v γ-cyclodextrin, read-out: Solubility (mg/mL) γ-Cyclodextrin)?
A: 0.09 mg/mL (≈ 241 µM)

Q: And the “K1:1 (M^−1), stability constant” value [3]?
A: 140 M⁻¹

Q: For Cc1ccc(Nc2nccc(N(C)c3ccc4c(C)n(C)nc4c3)n2)cc1S(N)(=O)=O [Pazopanib], which solubility [1] is on record?
A: 0.0006 mg/mL (≈ 1.37 µM)

Q: And the solubility ([2]; aqueous eye drop medium with 16% w/v γ-cyclodextrin, eye drop medium: 16 % w/v γ-cyclodextrin, benzalkonium chloride 0.02%, disodium edetate 0.10%, sodium chloride 0.05%, read-out: Solubility (mg/mL) Eye drops)?
A: 0.01 mg/mL (≈ 22.9 µM)

Q: And the solubility ([2]; aqueous solution with 16 % w/v γ-cyclodextrin and tyloxapol (1% w/v), read-out: Solubility (mg/mL) Tyloxapol)?
A: 0.006 mg/mL (≈ 13.7 µM)

Q: And the solubility ([2]; aqueous γ-cyclodextrin solution, 16 % w/v γ-cyclodextrin, read-out: Solubility (mg/mL) γ-Cyclodextrin)?
A: 0.007 mg/mL (≈ 16 µM)

Q: And the “K1:1 (M^−1), stability constant” value [3]?
A: 13 M⁻¹

Q: For CNC(=O)c1cc(Oc2ccc(NC(=O)Nc3ccc(Cl)c(C(F)(F)F)c3)c(F)c2)ccn1 [Regorafenib], which solubility [1] is on record?
A: 0.0001 mg/mL (≈ 0.207 µM)

Q: And the solubility [2, 5]?
A: 0.0008 mg/mL (≈ 1.66 µM)

Q: And the solubility [2, 6]?
A: 0.005 mg/mL (≈ 10.4 µM)

Q: What about the solubility [2, 7] of the same compound?
A: 0.0005 mg/mL (≈ 1.04 µM)

Q: And the “K1:1 (M^−1), stability constant” value [3]?
A: 94 M⁻¹

Q: With OC[C@H]1O[C@@H]2O[C@H]3[C@H](O)[C@@H](O)[C@@H](O[C@H]4[C@H](O)[C@@H](O)[C@@H](O[C@H]5[C@H](O)[C@@H](O)[C@@H](O[C@H]6[C@H](O)[C@@H](O)[C@@H](O[C@H]7[C@H](O)[C@@H](O)[C@@H](O[C@H]1[C@H](O)[C@H]2O)O[C@@H]7CO)O[C@@H]6CO)O[C@@H]5CO)O[C@@H]4CO)O[C@@H]3CO [α-cyclodextrin] as the compound, how does the “solubility in pure water” value [4] read?
A: 129500 ± 700 µg/mL (≈ 133000 µM)

Q: Which “solubility in pure water” value [4] does the source give for OC[C@H]1O[C@@H]2O[C@H]3[C@H](O)[C@@H](O)[C@@H](O[C@H]4[C@H](O)[C@@H](O)[C@@H](O[C@H]5[C@H](O)[C@@H](O)[C@@H](O[C@H]6[C@H](O)[C@@H](O)[C@@H](O[C@H]7[C@H](O)[C@@H](O)[C@@H](O[C@H]8[C@H](O)[C@@H](O)[C@@H](O[C@H]9[C@H](O)[C@@H](O)[C@@H](O[C@H]1[C@H](O)[C@H]2O)O[C@@H]9CO)O[C@@H]8CO)O[C@@H]7CO)O[C@@H]6CO)O[C@@H]5CO)O[C@@H]4CO)O[C@@H]3CO [γ-cyclodextrin] here?
A: 249200 ± 200 µg/mL (≈ 192000 µM)
